{"source": "patent US11039995B2", "about": "“Topical compositions for reducing the effects of aging” (Samson Pharma, LLC, priority 2013, dated 2021)", "key": {"[1]": {"system": "promyelocytic leukemia cells", "details": "relative to all-trans retinoic acid; cited from earlier work"}, "[2]": {"details": "clinical trials; cited from earlier work"}, "[3]": {"system": "skin of albino rabbits", "assay": "Acute dermal irritation/corrosion (OECD 404), single topical 4-hour application", "assay_type": "in vivo", "description": "A study was conducted based upon the following references: OECD 404, Organization for Economic Co-Operation and Development (OECD), Guidelines for the Testing of Chemicals, “Acute Dermal Irritation/Corrosion”, adopted 24 Apr. 2002. ISO 10993-12, 2012, Biological Evaluation of Medical Devices—Part 12: Sample Preparation and Reference Materials. ISO/IEC 17025, 2005. General Requirements for the Competence of Testing and Calibration Laboratories.\nThe skin of three albino rabbits was prepared for testing by clipping the skin of the trunk free of hair at the application sites within 24 hours of the test. The sites of application were not abraded deliberately or accidentally during preparation. Tamibarotene was administered at dose levels of 0.02%, 0.04%, and 0.08% in 60% DMSO. The animals were treated by introducing each dose level (0.5 ml) under gauze patches at individual application sites. The control (0.5 ml of 60% DMSO) was applied to a fourth site.\nAs it was suspected that tamibarotene might produce severe irritancy/corrosion, a single animal test was initially employed. Test patches of each dose level and control were applied. After three minutes, the skin sites were examined by gently lifting the bandage to examine the skin without bandage removal. […] If a corrosion effect was observed after three minutes or one hour, the test was to be immediately terminated.\nBecause an irritation or corrosive effect was not observed in the initial test after one hour, the response was confirmed using two additional animals dosed with each dose level and control at individual application sites for four hours. At the end of the exposure period, the wrapping was removed from and the skin washed with USP sterile Water for Injection (SWFI) to remove any test substance still remaining. […] Observations were scored according to the Draize Scale for Scoring Skin Reactions."}, "[4]": {"details": "cited from earlier work"}}}
{"smiles": "CC1(C)CCC(C)(C)c2cc(NC(=O)c3ccc(C(=O)O)cc3)ccc21", "note": "[tamibarotene, Benzoic acid,4-[[(5,6,7,8-tetrahydro-5,5,8,8-tetramethyl-2-naphthalenyl)amino]carbonyl]—]", "values": [{"measurement": "potency as an inducer of differentiation compared to ATRA", "setting": "[1]", "result": "several times more potent"}, {"measurement": "adverse side effects compared to ATRA", "setting": "[2]", "result": "milder"}, {"measurement": "irritation or corrosive effect after one hour", "setting": "[3]; initial single animal test, 0.02%, 0.04%, 0.08% in 60% DMSO, after one hour", "result": "not observed"}, {"measurement": "serious skin reaction after three minutes", "setting": "[3]; initial single animal, 0.02%, 0.04%, 0.08% in 60% DMSO, 0.5 ml under gauze patches, examined after three minutes", "result": "no serious skin reaction was observed"}, {"measurement": "primary dermal irritation classification", "setting": "[3]; single topical 4-hour application, dose levels 0.02%, 0.04%, 0.08% in 60% DMSO", "result": "non-irritant"}, {"measurement": "body weight", "setting": "[3]; three albino rabbits, during the study", "result": "gained weight"}, {"measurement": "signs of erythema or edema (Draize Scale)", "setting": "[3]; three rabbits, 4-hour exposure, 0.02%, 0.04%, 0.08% in 60% DMSO, observed 60 minutes, 24, 48, 72 hours after bandage removal", "result": "None of the test sites presented any signs of erythema or edema"}, {"measurement": "plasma concentration during daily administration", "setting": "[4]", "result": "sustains plasma level"}]}
{"smiles": "CC1=C(/C=C/C(C)=C/C=C/C(C)=C/C(=O)O)C(C)(C)CCC1", "note": "[ATRA, all-trans retinoic acid]", "values": [{"measurement": "plasma concentration during daily administration", "setting": "[4]", "result": "declines considerably"}]}
